Like-named read-outs stand apart in the source and are kept apart here.

The subject of one data set is SH-SY5Y cells. In words: Cell proliferation (anti-proliferation) assay, MTS. Type of data set: cell-based, human. Particulars: for GI50 / IC50: Homo sapiens; for GI50: SH-SY5Y neuroblastoma cell line, 72 h, mean ± SD (n = 4); for IC50: read-out: anti-proliferative activity IC50 against SH-SY5Y cell line. The method, then: SH-SY5Y cells were grown in DMEM with L-glutamin supplemented with streptomycin ([…]), penicillin (100 units/mL), and 10% fetal bovine serum (FBS). Cells were grown to confluence in a humidified atmosphere (37 °C, 5% CO2).
SH-SY5Y cells (1.5 × 10^3 cells/well) were seeded in a clear 96-well plate, the medium volume was brought to 100 µL, and the cells were allowed to attach overnight. The next day, various concentrations of compounds or DMSO were added to the wells. Cells were then incubated at 37 °C for 24, 48 and 72 h. Cell viability was determined using the Promega Cell Titer 96 Aqueous One Solution cell proliferation assay. Absorbance at 490 nm was read on Tecan Infinite F200 Pro plate reader, and values were expressed as percent of absorbance from cells incubated in DMSO alone.

A further data set in a line: PAMPA-BBB assay. Type of data set: in vitro ADME. Particulars: for Papp at 4 h, 25 μM: PAMPA, read-out: Pe. The protocol: BBB-PAMPA was conducted by manufacturer’s instruction (pION Inc, MA, USA). […] Transmembrane side to donor part was coated with BBB lipid solution and add 200 μL acceptor buffer in upper part of PAMPA sandwich plate.
A general note: In PAMPA a lipid-coated filter parts donor from acceptor wells.

Data set [1] can be described thus: In vivo brain pharmacokinetic study. Conditions: ICR male mice, IV, 2 mg/kg. The protocol: The study was approved by the Institutional Animal Care and Use of Committee of Daegu-Gyeongbuk Medical Innovation Foundation (DGMIF) and performed in accordance with protocols approved by the Institutional Animal Care and Use of Committee. […] Brain and plasma samples were collected at 0.5 and 1 h time points. Brain samples were homogenized at a 1:4 ratio of sample weight (g) to PBS volume (mL). Aliquots (20 μL) of brain homogenate were mixed with 180 μL of acetonitrile, vortexed and centrifuged at 15,000 rpm for 5 minutes at 4 °C. The resulting supernatants were used for LC-MS/MS analysis. Mice plasma samples were collected at 0.5 and 1 h time points. 180 μL of acetonitrile was added to 20 μL of plasma samples, vortexed and centrifuged at 15,000 rpm for 5 minutes at 4 °C.

The test system of a further data set is Ac-α-tubulin. In words: Western blot of acetylation status in SH-SY5Y cells. Type of data set: cell-based, human. Particulars: 24 h, 1 μM. The protocol: Cells were seeded in 100 mm culture dishes (1 × 10^6 cells/dish), and allowed to attach overnight. Inhibitors were added at the concentrations as indicated and the cells were incubated for an additional 24 hours. For comparison, cells were also incubated with DMSO (0.5%) for 24 hours. Cells were harvested in ice-cold lysis buffer (23 mM Tris-HCl pH 7.6, 130 mM NaCl, 1% NP-40, 1% sodium deoxycholate, 0.1% SDS), and 30 µg of lysate per lane was separated by SDS-PAGE and followed by transferring to a PVDF membrane (Bio-Rad). The membrane was blocked with 5% skim milk in TBST, and then incubated with the corresponding antibody (Ac-α-tubulin, α-tubulin, Ac-Histone H3, Histone H3 or β-actin). After binding of an appropriate secondary antibody coupled to horseradish peroxidase, proteins were visualized by ECL chemiluminescence according to the instructions of the manufacturer (GE healthcare, USA).

The mark [2] stands for this setting: 25 μM, pH 7.4, 4 h, 25 °C, mean ± SD, three independent experiments.

A word on the GI50: it is the concentration at which growth is held to half of that of the control. Broadly, the IC50 is the concentration that inhibits the measured activity by half. As for `O=C(NO)c1ccc(-c2nc3ccccc3[nH]2)cc1` [Compound 5], the GI50 with SH-SY5Y cells was 60 ± 1.5 µM. In addition, the concentration for half-maximal inhibition (IC50) with SH-SY5Y cells (SH-SY5Y, Table 1 values IC50) was 60 µM.
On to `Cn1c(-c2ccc(C(=O)NO)cc2)nc2ccccc21` [Compound 6a], for which, in the data set on SH-SY5Y cells, the concentration for 50% growth inhibition (GI50) was 58.3 ± 10.8 µM.
Same read-out and setting: the same measure for `CCn1c(-c2ccc(C(=O)NO)cc2)nc2ccccc21` [Compound 6b]: 38.1 ± 0.2 µM; for `CCCn1c(-c2ccc(C(=O)NO)cc2)nc2ccccc21` [Compound 6c]: 54.7 ± 0.95 µM.
Compound `CCCCn1c(-c2ccc(C(=O)NO)cc2)nc2ccccc21` [Compound 6d] showed a 50% growth inhibitory concentration (GI50) in the data set on SH-SY5Y cells of 26.8 ± 1.35 µM. Also, the concentration for half-maximal inhibition (IC50) with SH-SY5Y cells (SH-SY5Y, Table 1 values IC50) worked out at 26.8 µM. Besides, the “fold increase in potency from non-substituted analogue 5” value in the data set with SH-SY5Y cells (SH-SY5Y) is given as approximately 2 fold.
In the data set on SH-SY5Y cells, `O=C(NO)c1ccc(-c2nc3ccccc3o2)cc1` [Compound 9a] showed a GI50 of 25.7 ± 0.05 µM. Moreover, the 50% inhibitory concentration (IC50) in the data set on SH-SY5Y cells (SH-SY5Y, Table 1 values IC50) was 25.7 µM. The “fold less potent anti-proliferative activity than compound 9b” value with SH-SY5Y cells (SH-SY5Y) came out at 12 fold.
On to `O=C(NO)c1cccc(-c2nc3ccccc3[nH]2)c1` [Compound 13], for which the 50% growth inhibitory concentration (GI50) in the data set with SH-SY5Y cells was more than 100 µM.
On the same count and under the same terms, the same measure for `Cn1c(-c2cccc(C(=O)NO)c2)nc2ccccc21` [Compound 14a]: more than 100 µM; for `CCn1c(-c2cccc(C(=O)NO)c2)nc2ccccc21` [Compound 14b]: 28.2 ± 0.75 µM.
On the same count and under the same terms, under `CCCn1c(-c2cccc(C(=O)NO)c2)nc2ccccc21` [Compound 14c] stands 34.6 ± 0.6 µM; under `CCCCn1c(-c2cccc(C(=O)NO)c2)nc2ccccc21` [Compound 14d], 20.7 ± 1 µM; under `O=C(NO)c1cccc(-c2nc3ccccc3o2)c1` [Compound 17a], 17.5 ± 0.35 µM.
The same measure, in the same setting: the same measure for `O=C(NO)c1cccc(-c2nc3ccccc3s2)c1` [Compound 17b]: 21.4 ± 1.65 µM.
Regarding `CC(=O)[C@H]1CC[C@H]2[C@@H]3CCC4=CC(=O)CC[C@]4(C)[C@H]3CC[C@]12C` [Progesterone], in the data set “PAMPA-BBB assay” (PAMPA-BBB), the “CNS +/− classification” value is on record as “CNS + (CNS + indicates (Pe > 10))”. Besides, the Papp at 4 h, 25 μM in “PAMPA-BBB assay” (setting [2]) was determined as 35.52 ± 0.33 ×10⁻⁶ cm/s.
Regarding `O=C(CCCCCCC(=O)Nc1ccccc1)NO` [SAHA, suberoylanilide hydroxamic acid, reference compound], the “Brain concentration (ng/mL) 0.5 h” value in data set [1] (0.5 h, n = 4) is reported as 14.5 ± 2.8 ng/mL. In addition, in data set [1] (1 h, n = 4), the “Brain concentration (ng/mL) 1 h” value is listed as “BQL”. Besides, the Kp at 0.5 h in data set [1] (mouse, brain/plasma, 0.5 h, read-out: Brain/plasma ratio 0.5 h) turned out to be 0.4. Besides, the concentration at 0.5 h in data set [1] (mouse, brain, 0.5 h, n = 4, read-out: Brain concentration (ng/mL) 0.5 h) was 14.5 ng/mL. In addition, the concentration at 0.5 h in data set [1] (mouse, plasma, 0.5 h, n = 4, read-out: Plasma concentration (ng/mL) 0.5 h) was 39.2 ± 11.5 ng/mL. The concentration at 1 h in data set [1] (mouse, plasma, 1 h, n = 4, read-out: Plasma concentration (ng/mL) 1 h) was 4.5 ± 2.7 ng/mL. In addition, in the data set with Ac-α-tubulin, the “acetylation of α-tubulin at 1 μM, SAHA versus 9b” value was “induced more acetylation of α-tubulin than compound 9b”. For the same compound, in “PAMPA-BBB assay” (setting [2]), the “Pe (10^−6 cm/s)” value is listed as 2.77 10^−6 cm/s and the Papp at 4 h, 25 μM was found to be 2.77 ± 0.05 ×10⁻⁶ cm/s. In the data set on SH-SY5Y cells (SH-SY5Y), the half-inhibitory concentration (IC50) was 2.9 µM. The compound further displayed a GI50 in the data set on SH-SY5Y cells of 2.9 ± 0.28 µM.

Values taken from PMC6742641, “Design, synthesis and biological evaluation of a series of CNS penetrant HDAC inhibitors structurally derived from amyloid-β probes” (Scientific Reports, 2019).
